Assay results reported in patent US5767268A, “Sulfuric acid esters of amino sugars” (Hoffmann-La Roche Inc., priority 1995, dated 1998).
Where a name gives a salt, the structure may show the parent alone. Read-outs that look alike come from different tables or passages of the source.

Experiments:
[1] = tested on: neointima in rat carotids; experiment: In vivo assay of the antiproliferative activity in damaged rat carotids (neointima); set-up: species or system rat (male Wistar Kyoto); conditions: 1 mg/kg/h i.v., p<0.001 t-test
Procedure: In vivo assay for the determination of the antiproliferative activity of the compounds in accordance with the invention in damaged rat carotids
After narcosis, the left carotids of male Wistar Kyoto rats (300-400 g) were damaged with a 2 F embolectomy catheter by drawing the catheter in the pumped-up state three times through the vessel. After wound healing, the animals were kept in pairs with standard feed and water ad libidum.
The compounds were administered in concentrations of 0.3-1 mg/kg/h i.v. For this purpose, during the narcosis an osmotic minipump was implanted into the animals under the dorsal skin and was attached to the jugular vein. Thus, the compounds could be administered constantly during the entire test period of 14 days.
After 14 days proliferative tissue (neointima) had formed, the size of which could be determined morphometrically on histological cross-sections.For this purpose, the rats were sacrificed and perfusion-fixed with glutaraldehyde.

thrombin = biological target: T1, thrombin (Homo sapiens, UniProt P00734); format: biochemical
T1 construct: purchased Roche Basle (Thrombin Reagent)
Procedure: (§1) Inhibition of thrombin or Factor Xa in the Chromogen Substrate Test (Teien et al., Thrombosis Research 10, 399-410 (1977)): The determination was effected in a Cobas-Bio centrifugal automatic spectrophotometer. The buffer solution used consisted of 50 mM Tris buffer, 180 mM NaCl, 7.5 mM EDTA Na2, 1% PEG 6000 and 0.02% Tween 80, pH 8.4. The test solution consisted of 50 μl of buffer, 30 μl of antithombin III (1U/ml, Kabi Diagnostica) and 20 μl of plasma which contained various concentrations of test compounds. 30 μl of sample solution and 20 μl of water with 180 μl of thrombin (1U/ml, Thrombin Reagent Roche Basle) were added to the test cuvette in the automatic analyzer. After incubation at 37° C. for 240 seconds, 60 μl of S-2238 (H-D-Phe-Pip-Arg-NH.pNA, Kabi Diagnostica, Mondal, Sweden, 0.75 mM in water) and 20 μl of water were added. The liberation of pNA (p-nitro-aniline) was followed during 60 seconds at 405 nm in 10 second intervals in comparison to water as the blank.

Factor Xa = biological target: T2, Factor Xa (Bos taurus, UniProt P00743); experiment: Blood coagulation inhibition: inhibition of Factor Xa in the Chromogen Substrate Test; format: biochemical
T2 sequence (P00743 41-180 limits assumed): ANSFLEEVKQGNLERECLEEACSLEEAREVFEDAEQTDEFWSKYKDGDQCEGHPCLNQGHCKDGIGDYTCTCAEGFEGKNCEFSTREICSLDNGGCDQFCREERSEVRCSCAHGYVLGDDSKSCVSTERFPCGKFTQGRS
Procedure: as §1
The inhibition of Factor Xa was measured in the same manner using a solution of Factor Xa (2.8 nkat/ml and 2 mM S-2222 (Bz-CO-Ile-Glu-Arg-NH.pNA, Kabi Diagnostica) in water in place of thrombin and, respectively, S-2238.

rat smooth muscle cells = experiment: Antiproliferative activity (ri, relative to heparin) in rat smooth muscle cells; format: cell-based; set-up: key: growth inhibition relative to heparin at 100 μg/ml, same experiment; conditions: 100 μg/ml, 48 h, relative to heparin at 100 μg/ml in the same experiment
Procedure: Antiproliferative Activity
The antiproliferative activity of a substance is expressed as the ri value which is a comparative value to the corresponding activity of heparin and which was determined in cell cultures as follows: rat smooth muscle cells were applied to cell culture plates in a density of 8×10^3 cells/well (medium: DMEM with 10% FCS. Cultivation at 37° C. and 5% CO2). After 4 hours, the number of adhered cells was determined and the substances to be tested (100 μg/ml, dissolved in H2 O) were added. […] Subsequently, the cells were incubated for 48 h. and thereafter the cell count was determined once more.
The inhibition i of the cell growth, that is, the reduction in the growth rate of the cells in percent compared to the control, was calculated from these values. [formula] the growth rate μbeing calculated as [formula] in which Z is the number of cells and d is the time in days.
Finally, ri --the relative inhibitory activity--which expresses the activity of a substance (at 100 μg/ml) in comparison to the activity of heparin in the same concentration in the same experiment, was calculated: [formula] Blood Coagulation Inhibition

[2] = with antithrombin III and plasma, S-2238 substrate, 37° C., pH 8.4; read-out: Anticoagulative Activity IC50 Thrombin
[3] = with antithrombin III and plasma, S-2222 substrate; read-out: Anticoagulative Activity IC50 Factor Xa
[4] = read-out: Anticoagulative Activity IC50 Thrombin; with antithrombin III and plasma, S-2238 substrate, 37° C., pH 8.4
[5] = read-out: Anticoagulative Activity IC50 Factor Xa; with antithrombin III and plasma, S-2222 substrate
[6] = with antithrombin III and plasma, S-2238 substrate, 37° C., pH 8.4
[7] = with antithrombin III and plasma, S-2222 substrate

| Molecule | cross-sectional area of the neointima in rat carotids 14 days after balloonisation [1] | IC50 (thrombin; [2]) | IC50 (Factor Xa; [3]) | Antiproliferative Activity ri (relative inhibitory activity versus heparin) (rat smooth muscle cells) | IC50 (thrombin; [4]) | IC50 (Factor Xa; [5]) | Anticoagulative Activity IC50 Thrombin (thrombin; [6]) | Anticoagulative Activity IC50 Factor Xa (Factor Xa; [7]) |
| --- | --- | --- | --- | --- | --- | --- | --- | --- |
| O=C(N[C@H]1[C@@H](OCc2ccccc2)O[C@H](CNC(=O)[C@H](OS(=O)(=O)O)[C@@H](OS(=O)(=O)O)[C@H](OS(=O)(=O)O)[C@@H](COS(=O)(=O)O)OS(=O)(=O)O)[C@@H](OS(=O)(=O)O)[C@@H]1OS(=O)(=O)O)c1ccc(-c2ccc(C(=O)N[C@H]3[C@@H](OCc4ccccc4)O[C@H](CNC(=O)[C@H](OS(=O)(=O)O)[C@@H](OS(=O)(=O)O)[C@H](OS(=O)(=O)O)[C@@H](COS(=O)(=O)O)OS(=O)(=O)O)[C@@H](OS(=O)(=O)O)[C@@H]3OS(=O)(=O)O)cc2)cc1 [Example 14, Biphenyl-4,4'-dicarboxylic acid bis-[[benzyl 2,6-didesoxy-3,4-di-O-sulfo-6-(2,3,4,5,6-penta-O-sulfo-D-gluconoylamino)-a-D-glucopyranosid-2-yl]-amide] tetradecasodium salt] | significantly reduced | > 450 µM | > 450 µM | 1.2 |  |  |  |  |
| O=C(N[C@H]1[C@@H](OCc2ccccc2)O[C@H](CNC(=O)[C@H](OS(=O)(=O)O)[C@@H](OS(=O)(=O)O)[C@H](OS(=O)(=O)O)[C@@H](COS(=O)(=O)O)OS(=O)(=O)O)[C@@H](OS(=O)(=O)O)[C@@H]1OS(=O)(=O)O)c1cccc(C(=O)N[C@H]2[C@@H](OCc3ccccc3)O[C@H](CNC(=O)[C@H](OS(=O)(=O)O)[C@@H](OS(=O)(=O)O)[C@H](OS(=O)(=O)O)[C@@H](COS(=O)(=O)O)OS(=O)(=O)O)[C@@H](OS(=O)(=O)O)[C@@H]2OS(=O)(=O)O)c1 [Example 24, Isophthalic acid bis-[[benzyl 2,6-didesoxy-6-(2,3,4,5,6-penta-O-sulfo-D-gluconoylamino)-3,4-di-O-sulfo-a-D-gluco-pyranosid-2-yl]-amide] tetradecasodium salt] | significantly reduced |  |  |  |  |  |  |  |
| CN(C[C@H](OS(=O)(=O)O)[C@@H](OS(=O)(=O)O)[C@H](OS(=O)(=O)O)[C@@H](COS(=O)(=O)O)OS(=O)(=O)O)c1ccc(C(=O)N[C@H]2[C@@H](OCc3ccccc3)O[C@H](CNC(=O)c3cccc(C(=O)NC[C@H]4O[C@H](OCc5ccccc5)[C@H](NC(=O)c5ccc(N(C)C[C@H](OS(=O)(=O)O)[C@@H](OS(=O)(=O)O)[C@H](OS(=O)(=O)O)[C@@H](COS(=O)(=O)O)OS(=O)(=O)O)c([N+](=O)[O-])c5)[C@@H](OS(=O)(=O)O)[C@@H]4OS(=O)(=O)O)c3)[C@@H](OS(=O)(=O)O)[C@@H]2OS(=O)(=O)O)cc1[N+](=O)[O-] [Example 35, Isophthalic acid bis-[[benzyl 2,6-didesoxy-2-[4-[methyl (2,3,4,5,6-penta-O-sulfo-D-glucit-1-yl)-amino]-3-nitro-benzoylamino]-3,4-di-O-sulfo-a-D-glucopyranosid-6-yl]-amide] tetradecasodium salt] |  |  |  | 2.5 | > 404 µM | > 404 µM |  |  |
| O=C(NC[C@H]1O[C@H](OCc2ccccc2)[C@H](NC(=O)c2ccc(N(CCOS(=O)(=O)O)C[C@H](OS(=O)(=O)O)[C@@H](OS(=O)(=O)O)[C@H](OS(=O)(=O)O)[C@@H](COS(=O)(=O)O)OS(=O)(=O)O)c([N+](=O)[O-])c2)[C@@H](OS(=O)(=O)O)[C@@H]1OS(=O)(=O)O)c1cccc(C(=O)NC[C@H]2O[C@H](OCc3ccccc3)[C@H](NC(=O)c3ccc(N(CCOS(=O)(=O)O)C[C@H](OS(=O)(=O)O)[C@@H](OS(=O)(=O)O)[C@H](OS(=O)(=O)O)[C@@H](COS(=O)(=O)O)OS(=O)(=O)O)c([N+](=O)[O-])c3)[C@@H](OS(=O)(=O)O)[C@@H]2OS(=O)(=O)O)c1 [Example 36, Isophthalic acid bis-[[benzyl 2,6-didesoxy-2-[4-[(2-hydroxysulfonyloxy-ethyl)-2,3,4,5,6-penta-O-sulfo-D-glucit-1-yl)-amino]-3-nitro-benzoylamino]-3,4-di-O-sulfo-a-D-glucopyranosid-6-yl]-amide] hexadecasodium salt] |  |  |  | 2.1 | > 371 µM | > 371 µM |  |  |
| CC(=O)Nc1cc(C(=O)N[C@H]2[C@@H](OCc3ccccc3)O[C@H](CNC(=O)c3cccc(C(=O)NC[C@H]4O[C@H](OCc5ccccc5)[C@H](NC(=O)c5ccc(N(C)C[C@H](OS(=O)(=O)O)[C@@H](OS(=O)(=O)O)[C@H](OS(=O)(=O)O)[C@@H](COS(=O)(=O)O)OS(=O)(=O)O)c(NC(C)=O)c5)[C@@H](OS(=O)(=O)O)[C@@H]4OS(=O)(=O)O)c3)[C@@H](OS(=O)(=O)O)[C@@H]2OS(=O)(=O)O)ccc1N(C)C[C@H](OS(=O)(=O)O)[C@@H](OS(=O)(=O)O)[C@H](OS(=O)(=O)O)[C@@H](COS(=O)(=O)O)OS(=O)(=O)O [Example 37, Isophthalic acid bis-[[benzyl 2-[3-acetylamino-4-[methyl-(2,3,4,5,6-penta-O-sulfo-D-glucit-1-yl)-amino]-benzoylamino]-2,6-didesoxy-3,4-di-O-sulfo-a-D-glucopyranosid-6-yl]-amide] tetradecasodium salt] |  | > 401 µM | > 401 µM | 1.9 |  |  |  |  |
| CC(=O)Nc1cc(C(=O)N[C@H]2[C@@H](OCc3ccccc3)O[C@H](CNC(=O)c3cccc(C(=O)NC[C@H]4O[C@H](OCc5ccccc5)[C@H](NC(=O)c5ccc(N(CCOS(=O)(=O)O)C[C@H](OS(=O)(=O)O)[C@@H](OS(=O)(=O)O)[C@H](OS(=O)(=O)O)[C@@H](COS(=O)(=O)O)OS(=O)(=O)O)c(NC(C)=O)c5)[C@@H](OS(=O)(=O)O)[C@@H]4OS(=O)(=O)O)c3)[C@@H](OS(=O)(=O)O)[C@@H]2OS(=O)(=O)O)ccc1N(CCOS(=O)(=O)O)C[C@H](OS(=O)(=O)O)[C@@H](OS(=O)(=O)O)[C@H](OS(=O)(=O)O)[C@@H](COS(=O)(=O)O)OS(=O)(=O)O [Example 38, Isophthalic acid bis-[[benzyl 2-[3-acetylamino-4-[(2,3,4,5,6-penta-O-sulfo-D-glucit-1-yl)-(2-sulfonyloxy-ethyl)-amino]-benzoylamino]-2,6-didesoxy-3,4-di-O-sulfo-a-D-glucopyranosid-6-yl]-amide] hexadecasodium salt] |  |  |  | 1.8 | > 368 µM | > 368 µM |  |  |
| Biphenyl-4,4'-dicarboxylic acid bis-[[(Z)-benzyl 2,6-didesoxy-3,4-di-O-sulfo-6-(3-desoxy-2,4,5,6-tetra-0-sulfo-D-erythro-hex-2-enonoylamino)-a-D-glucopyranosid-2-yl]-amide] dodecasodium salt [Example 15] |  |  |  | 1.8 |  |  | > 1000 µg/mL | > 1000 µg/mL |
| Heparin [reference compound] |  |  |  | 1.0 |  |  | 1.9 µg/mL | 2.7 µg/mL |
